Source: US7745120B2, “Cell culture and method for screening for a compound useful in the treatment or prevention of hepatic cirrhosis” (Industrial Technology Research Institute, priority 2004, dated 2010)
“Also recorded” adds a separate entry of the source.

Legend:
Type in all cases: cell-based, human
[1] = test system: Huh-7PALB-EGFP and immortalized HSC coculture; assay: methylene blue assay of cell activity in thioacetamide-damaged co-culture; settings: interferon-α 1000, 5000, 10000 IU/ml added 3 hours before 100 mM thioacetamide; read after 24 hours; FIG. 11A
Protocol: Modified human HSCs and Huh-7 cells obtained from examples 1 and 6 were co-cultured via layer by layer culturing. Immortalized human HSCs were cultured in a 24-well culture plate, wherein each well was coated with extracellular matrix before use. The extracellular maxtrix used in the present example was Type I collagen or Matrigel. Six hours after the HSCs were attached, Huh-7 cells carrying albumin promoter (pLpLhyg-PAlb5/3-EGFP) (Huh-7PALB-EGFP) were subsequently cultured on the top of the attached HSCs.
One day later, 1000, 5000, 10000 IU/ml of interferon-α(F. Hoffman-La Roche, Ltd.) was added into cells respectively. Three hours later, 100 mM of thioacetamide (Sigma-Aldrich, Co.) was added to damage the cells. After 24 hours, methylene blue assay was conducted for analyzing the cell activity. In the meantime, the intensity of green fluorescence was determined by a fluorescence reader, and the result is shown in FIG. 11B.

[2] = test system: immortalized hepatocyte THLE-2 and immortalized HSC coculture; assay: methylene blue assay of cell activity in thioacetamide-damaged co-culture of normal hepatocytes and HSCs; settings: THLE-2 / HSC co-culture; interferon-α 1000, 5000, 10000 IU/ml added 3 hours before thioacetamide; read after another 24 hours; FIG. 11C
Protocol: To compare the cells in the present example with the normal hepatocytes and HSCs after drug treatment, immortalized human hepatocytes THLE-2 (ATCC NO: CRL-2706, normal primary hepatocytes immortalized by SV40 large T antigen gene) and untransfected human HSCs were co-cultured following procedures described as the above. After 24 hours, 1000,5000,10000 IU/ml of interferon-αwere added. Thioacetamide was applied to damage the cells after 3 hours. After another 24 hours, the cell activity was examined by methylene blue assay, and the result is shown as FIG. 11C. The result corresponds to that of the cell model for drug screening with pLpLhyg-PAlb5/3-EGFP transfected cells (FIG. 11A).

[3] = test system: Huh-7PALB-EGFP and immortalized HSC coculture; assay: green fluorescence intensity (EGFP reporter under albumin promoter) by fluorescence reader in thioacetamide-damaged co-culture; settings: interferon-α 1000, 5000, 10000 IU/ml added 3 hours before 100 mM thioacetamide; read after 24 hours; two independent experiments, average of 3 wells; FIG. 11B
Protocol: The fluorescence signal expressed from transfected cells of example 5 was observed under a fluorescence microscope, and the fluorescence intensity was analyzed by image analysis software. Fluorescence intensity of EGFP was determined by a fluorescence reader and an fluorescence ELISA reader. The excitation wavelength was 488 nm, and the emission wavelength was 510 nm while the green fluorescence from the EGFP gene was detected. When the red fluorescence from DsRed gene was detected, the excitation wavelength was 558 nm, and the emission wavelength was 583 nm. A flow cytometry (for example, FACSCalibur, Becton Dickinson, Inc.) can also be used to determine the intensity of fluorescence.
Modified human HSCs and Huh-7 cells obtained from examples 1 and 6 were co-cultured via layer by layer culturing. Immortalized human HSCs were cultured in a 24-well culture plate, wherein each well was coated with extracellular matrix before use. The extracellular maxtrix used in the present example was Type I collagen or Matrigel. […]
One day later, 1000, 5000, 10000 IU/ml of interferon-α(F. Hoffman-La Roche, Ltd.) was added into cells respectively. […] In the meantime, the intensity of green fluorescence was determined by a fluorescence reader, and the result is shown in FIG. 11B.

## interferon-α
[1]
  effect on damage from thioacetamide, methylene blue assay (cell activity): decreased the damage from thioacetamide; also recorded: decreased cell damaged by thioacetamide
[2]
  effect on damage from thioacetamide, methylene blue assay (cell activity): decreased the damage from thioacetamide
[3]
  effect on damage from thioacetamide, fluorescence intensity expressed by Huh-7PALB-EGFP: decreased the damage from thioacetamide; also recorded: decreased cell damaged by thioacetamide
